Drawing on ChEMBL document CHEMBL1772976, “Bathymodiolamides A and B, ceramide derivatives from a deep-sea hydrothermal vent invertebrate mussel, Bathymodiolus thermophilus” (J Nat Prod, 2011), this text covers IC50 for two molecules.

Molecules are shown by their SMILES.

The subject of one test is MCF7. The test is described as follows: Cytotoxicity against human MCF7 cells after 48 hrs by MTT assay. The test is classed as functional, cell-based. As to conditions: MCF7, 48 h. (In general: Formazan colour is commonly taken as a measure of viable cells.)
The test system of the next test is HeLa. The test is described as follows: Cytotoxicity against human HeLa cells after 48 hrs by MTT assay. The test is classed as functional, cell-based.

A word on the IC50: it is the concentration that gives 50% inhibition. As for `CCC/C=C\C/C=C\C/C=C\CCCCC(=O)O[C@@H](COC(=O)CCCCCCCCCCCCCCC)[C@H](O)[C@H](CO)NC(=O)CCCCCCCCCCC` [BATHYMODIOLAMIDE A], the IC50 in the test with MCF7 was 100 nM; in the test on HeLa it was 400 nM.
As for `CCC/C=C\C/C=C\CCC(=O)O[C@@H](COC(=O)CCCCCCCCCCCCC)[C@H](O)[C@H](CO)NC(=O)CCCCCCCCCCC` [BATHYMODIOLAMIDE B], the concentration for half-maximal inhibition (IC50) in the test with MCF7 is 200 nM; in the test on HeLa, 500 nM.
